Data: US9839614B2, “Nanoparticle and polymer formulations for thyroid hormone analogs, antagonists, and formulations and uses thereof” (NANOPHARMACEUTICALS LLC, priority 2009, dated 2017)
Where “and” joins values, the source holds several entries; their conditions need not be identical. Equal entries are not always repeated.

Legend:
[1] = system: matrigel plug angiogenesis; experiment: Mouse matrigel model of angiogenesis (plug hemoglobin); type: in vivo, mice (C57BL/6NCr)
Protocol: Normal male mice (C57BL/6NCr) 6-8 weeks of age and weighing ˜20 g were purchased from Taconic farm. Animals were housed 4 per cage, in controlled conditions of temperature (20-24° C.); humidity (60-70%) and 12 hrs. light/dark cycle provided with food and water ad libitum. […] Aliquots of matrigel were placed into cold polypropylene tubes to prevent the matrigel from solidifying and the angiogenesis promoter added to matrigel with or without agonist. Mice were treated daily. Matrigel was subcutaneously injected as triple injection per animal at 100 μL/animal. At day 14 post plug implant all animals were killed in CO2 chamber and matrigel plugs were collected. Plug hemoglobin content was analyzed from three implants/mice (n=6 per group) to measure angiogenesis.
The matrigel plugs dissected from the mice were carefully stripped of any remaining peritoneum. The plugs were placed into 0.5 mL tube of ddH2O and homogenized for 5-10 min. […] Absorbance was read with a Microplate Manager ELISA reader at 540 nm. […] Hemoglobin concentration is a reflection of the number of blood vessels in the plugs.

Solubility = type: physicochemical
Protocol: Yield: 50%; off-white solid; recrist. solvent.: EtOH; TLC: Rf=0.43 (EtOAc/EtOH 9/1); RPTLC: Rf=0.43 (AcOH/H2O 8/2); mp=136° C.; IR (υ cm^−1): 1730 (CO); ^1H NMR (DMSO-d 6) δ (ppm): 7.79 (s, 2H, ArH), 7.14 (s, 2H, ArH), 4.06-4.02 (m, 2H, CH2), 3.93-3.89 (q, J=7.0 Hz, 2H, CH2), 3.59-3.56 (t, J=7.0 Hz, 1H, CH), 2.80-2.77 (m, 2H, CH2), 1.88 (br, 1H, NH), 1.41-1.39 (t, J=7.0 Hz, 3H, CH3), 1.15-1.12 (t, J=7.0 Hz, 3H, CH3); MS (ESI+) m/z 911.7[(M+DMSO)^+, 100], 833.7 [(M+H)+, 75]; Anal. Calcd. for C19H19I4NO4: C, 27.40; H, 2.30; N, 1.68. Found: C, 27.54; H, 1.94; N, 1.66. Solubility 10^−3M in water after preparing a solution at 10^−1M in DMSO.
When looking at the amorphous state, the solid was not stable and quickly returned to the crystal state. Thus, Tetrac was used as a salt with Na^+ as the counterion which reduced the use of DMSO to 10%. Then all analogs were solubilized with 10% DMSO in water for the TiPS protected analogs and in PBS for the others.

[2] = system: human MTC cells gene expression; experiment: RNA microarray analysis of h-MTC cells; type: cell-based
Protocol: Technical aspects of microarray studies, stringent quality control of microarray studies and statistic analysis of gene expression were as described previously. […] In brief, the array hybridization and processing, data retrieval and the analysis were carried out with standard sets of Affymetrix (Santa Clara, Calif.) equipment, software and protocols in an Affymetrix microarray core facility. RNA was extracted from cell cultures of two independent biological replicates of each experimental condition and analyzed for sample purity and integrity, using BioAnalyzer instrumentation (Agilent, Santa Clara, Calif.). Expression analysis of 54,675 transcripts was conducted for each sample, using Affymetrix HG-U133A Plus 2.0 arrays. Data retrieval and analysis was completed by MAS5.0 software. Concordant changes of gene expression for each experimental condition were determined at the statistical threshold P value, <0.01 (two-tailed t test).

[3] = system: GL261 murine brain tumor cells; experiment: GL261 growth curve, cell volumes/areas and colony forming efficiency; type: cell-based
Protocol: 1×10^5 cells per 25 cm^2 flask at time zero (density 40 cells/mm^2). Three flasks were utilized at each time period. The medium in the flasks was not changed over the duration of the growth curve (unfed cultures). Data were taken daily from day zero to day 11.5 post-seeding and cell numbers, age distributions, and apoptotic percentages were determined. After growth curve shapes (without and with 2 μM tetrac) were determined, irradiation times at 70 and 270 hour post-seeding were chosen.
To obtain exponential and plateau phase cell numbers, we trypsinized ([…] trypsin-EDTA) cells for 5 min at 37° C.
For determination of CCDTs, the cell numbers per flask were determined on a daily basis. A four-day interval in the exponential region of growth to obtain the CCDTs, yielding a total of 12 estimations for analysis was utilized. A regression analysis was performed using the (log) of the cell number versus the linear time in days (SigmaPlot, V. 10, Systat Software, Inc., Point Richmond, Calif.). The log slope value and its standard error (SE) were determined, and the SE was converted to the 95% confidence limits using a two-tailed t-table at N−1 degrees of freedom where N is the number of samples. (See Goldstein, A. In: Biostatistics, New York, The MacMillan Co., 1964, p. 140-146).

GL261 cells = experiment: Cell multiplicity (CM) factor after one hour Tetrac exposure; type: cell-based, murine; details: after one hour exposure to Tetrac
Protocol: Cell multiplicity (CM) was determined from Giemsa stained slides by counting the number of cells per microcolony under 20× magnification. At least 400 microcolonies were counted.
The length of time that Tetrac biologically affected GL261 cells was also determined. To do this, the multiplicity relationship defined above was utilized. Tetrac was added to cells one hour prior to the determination of the multiplicity. After the exposure of exponentially growing GL261 cells to Tetrac, the Tetrac containing medium was removed from GL261 cells, which contained an unknown residual and fresh medium (without Tetrac) was added. As a function of time (i.e., 0, 1, 2, 3, 4, 6, 8, and 10 hours, and 1-6 days), the cells, containing an unknown residual amount of remaining Tetrac, were then processed for determination of the multiplicity index (i.e. the number of cells per microcolony).

[4] = system: human medullary carcinoma of the thyroid (MTC) xenografts; details: mouse, in vivo
Protocol: Human medullary carcinoma cells (TT, Catalog No. CRL-1803) were purchased from American Type Culture Collection (Manassas, Va.) and cultured as instructed by the supplier, using a complete growth medium consisting of F-12K medium with 10% FBS. Cells were cultured in 5% CO2/air atmosphere at 37 C to sub-confluence and then treated with 0.25% (w/v) trypsin/EDTA to affect cell release from the culture vessel. After washing with culture medium, the cells were suspended in DMEM (free of phenol red and FBS) and counted. • Tetrac versus tetrac NP distribution in h-MTC. […] Female NCr nude homozygous mice aged 5-6 weeks and body weights of 20 g were purchased form Taconic Farms (Hudson N.Y.). Animals were maintained under specific pathogen-free conditions and housed 4 animals per cage, under controlled conditions of temperature (20-24° C.) and humidity (60-70%) and a 12 h light/dark cycle. Water and food were provided ad libitum.

TTR = TTR (Homo sapiens, UniProt P02766); details: cited from earlier work

With `O=C(O)Cc1cc(I)c(Oc2cc(I)c(O)c(I)c2)c(I)c1` [Tetrac, tetraiodothyroacetic acid] the “Mean inhibition of angiogenesis (%)” value ([1]; FGF 100 ng + Tetrac or analog 10 μg/plug) was 90 ± 13%, the “Mean inhibition of angiogenesis (%)” value ([1]; T4 + antagonist, each 10 μg/matrigel plug) was 89 ± 11% and the “inhibition of FGF induced angiogenesis” value ([1]; Tetrac 10 μg) was 85%. For the same compound, the “inhibition of FGF induced angiogenesis” value ([1]; Tetrac 30 μg) was 91%, the solubility in water (Solubility) was “difficult to solubilize in water” and the VEGFA expression [2] was “significantly decreased expression”. For the same compound, the “expression of apoptosis genes (CASP2, DFFA, FAF1, CASP8AP2)” value [2] was “caused expression of genes associated with induction of apoptosis”, the “thrombospondin (THBS1) gene expression” value [2] was “concomitant increase” and the “decrease of final saturation density” value ([3]; 2 μM Tetrac) was “about 50%”. The “saturation density of control relative to tetrac-treated cells” value ([3]; 2 μM Tetrac) was “approximately 2.4 times”, the “cell culture doubling time, Tetrac-treated GL261 cells” value ([3]; 2 μM Tetrac, exponential growth) was 43.8 ± 3.8 h and 43.8 h and the “onset of exponential growth” value ([3]; 2 μM Tetrac, control 20 hours) was “about 40 hours”. The “Mean nuclear area (μm^2)” value ([3]; Exponential Cells (+Tetrac)) was 1180 μm^2, the “Median Volume (μm^3)” value ([3]; Exponential Cells (+Tetrac)) was 3850 μm^3 and the “Median cell area (μm^2)” value ([3]; Exponential Cells (+Tetrac)) was 2814 μm^2. For the same compound, the “nuclear/cell area (%)” value ([3]; Exponential Cells (+Tetrac)) was 42%, the “Mean nuclear area (μm^2)” value ([3]; Plateau phase Cells (+Tetrac)) was 310 μm^2 and the “Median Volume (μm^3)” value ([3]; Plateau phase Cells (+Tetrac)) was 2780 μm^3. The “Median cell area (μm^2)” value ([3]; Plateau phase Cells (+Tetrac)) was 700 μm^2, the “nuclear/cell area (%)” value ([3]; Plateau phase Cells (+Tetrac)) was 44% and the “CFE (%)” value ([3]; Plateau phase Cells (+Tetrac), with feeder cells) was 8.8%. The “cell size relative to control GL261 cells” value ([3]; exponential phase) was 1.4 times, the “cell size relative to control GL261 cells” value ([3]; plateau phase) was 1.9 times and the “time at which 50% decrease in the CM factor was recorded” value (GL261 cells) was 60 h. For the same compound, the mortality [4] was “no mortality” and the “affinity of TTR for Tetrac relative to that for T4” value (TTR) was 100 times.
